Source: patent EP4692072A1, “PHOTOCHROMIC COMPOUND, PROPARGYL ALCOHOL COMPOUND, CURABLE COMPOSITION, OPTICAL ARTICLE, LENS, AND SPECTACLES” (TOKUYAMA CORPORATION, priority 2023, dated 2024)

Experiments:
Format in all cases: physicochemical
[1] = Accelerated deterioration (xenon weather meter X25, 120 hours) of photochromic laminate prepared by coating method; details: 0.25 mmol per 100 g monomers, A120/A0×100 after 120 hours xenon weather meter
Description: First, the photochromic compound obtained in Example 1, a photoinitiator, and a polymerizable compound were mixed to obtain a curable composition.
Polyethylene glycol dimethacrylate (average molecular weight: 736): 42 parts by mass • Polyethylene glycol dimethacrylate (average molecular weight: 536): 12 parts by mass • Trimethylolpropane trimethacrylate: 38 parts by mass γ-methacryloyloxypropyl trimethoxysilane: 2 parts by mass Glycidyl methacrylate: 1 part by mass
Note that the photochromic compound was added to the curable composition so that the amount of the photochromic compound was 0.25 mmol based on 100 g of the total amount of the radical-polymerizable monomers.
Phenylbis(2,4,6-trimethylbenzoyl)phosphine oxide (photoinitiator: Omnirad 819): 0.3 parts by mass Ethylene bis(oxyethylene) bis[3-(5-tert-butyl-4-hydroxy-m-tolyl)propionate] (stabilizer, Irganox 245): 1 part by mass Bis(1,2,2,6,6-pentamethyl-4-piperidyl) sebacate: 3 parts by mass Leveling agent (L7001) manufactured by Dow Corning Toray Co.,Ltd.: 0.1 part by mass
First, a thiourethane-based plastic lens having a central thickness of 2 mm and a refractive index of 1.60 was prepared as the optical substrate. Note that this thiourethane-based plastic lens was pre-treated by alkaline etching with a 10% sodium hydroxide aqueous solution at 50°C for 5 minutes, followed by sufficient washing with distilled water.
A surface of the above-described plastic lens was coated with a moisture-curable primer (product name: TR-SC-P, manufactured by Tokuyama Corporation) at a rotation frequency of 70 rpm for 15 seconds, followed by 1000 rpm for 10 seconds, using a spin coater (1H-DX2, manufactured by MIKASA CO., LTD), Subsequently, about 2 g of the photochromic curable composition obtained above was spin-coated at a rotation frequency of 60 rpm for 40 seconds, followed by 600 rpm for 10 to 20 seconds, to form a photochromic coating layer with a film thickness of 40 µm.
The lens with the surface coated with the photochromic curable composition (photochromic coating layer) was irradiated with light using a metal halide lamp with an output power of 200 mW/cm^2 in a nitrogen gas atmosphere for 90 seconds to cure the coating film. Subsequently, the lens was further heated at 110°C for 1 hour to prepare a photochromic laminate having a photochromic layer.
• [1] Maximum Absorption Wavelength (λmax): The maximum absorption wavelength after color development, measured using a spectrophotometer (instantaneous multichannel photodetector MCPD3000) manufactured by Otsuka Electronics Co., Ltd. was used as an indicator for the color tone during the color development. • [2] 23°C Color Optical Density (A23): A difference between an absorbancy measured after light irradiation at 23°C for 300 seconds {ε(300)} and an absorbancy without light irradiation ε(0) at the maximum absorption wavelength was used as an indicator for the color optical density. […] 23°C color fading half-life [τ1/2 (sec.)]: A time required for the absorbancy of the sample at the maximum absorption wavelength to decrease to 1/2 of {ε(300)-ε(0)} when the light irradiation was terminated after the light irradiation at 23°C for 300 seconds, was used as an indicator for the color fading speed. The shorter this time, the higher the color fading speed. • [4] Residual rate (A120/A0×100): The obtained photochromic plastic lens was subjected to accelerated deterioration using a xenon weather meter X25 manufactured by Suga Test Instruments Co., Ltd. for 120 hours. Subsequently, the color optical density was evaluated before and after the test, then a color optical density before the test (A0) and a color optical density after the test (A120) were measured, and a ratio (A120/A0) was defined as a residual rate. The residual rate was used as an indicator for a color developing durability. The higher the residual rate, the higher the color developing durability. […]

[2] = Photochromic properties of photochromic cured product prepared by kneading method; details: 0.106 mmol per 100 g monomer; for A23: 1 mm cured product, 23°C color optical density ε(300)-ε(0); for Maximum absorption wavelength: 1 mm thiourethane cured product, after color development
Experimental: (§1) • [1] Maximum Absorption Wavelength (λmax): The maximum absorption wavelength after color development, measured using a spectrophotometer (instantaneous multichannel photodetector MCPD3000) manufactured by Otsuka Electronics Co., Ltd. was used as an indicator for the color tone during the color development. • [2] 23°C Color Optical Density (A23): A difference between an absorbancy measured after light irradiation at 23°C for 300 seconds {ε(300)} and an absorbancy without light irradiation ε(0) at the maximum absorption wavelength was used as an indicator for the color optical density. […] 23°C color fading half-life [τ1/2 (sec.)]: A time required for the absorbancy of the sample at the maximum absorption wavelength to decrease to 1/2 of {ε(300)-ε(0)} when the light irradiation was terminated after the light irradiation at 23°C for 300 seconds, was used as an indicator for the color fading speed. The shorter this time, the higher the color fading speed. • [4] Residual rate (A120/A0×100): The obtained photochromic plastic lens was subjected to accelerated deterioration using a xenon weather meter X25 manufactured by Suga Test Instruments Co., Ltd. for 120 hours. Subsequently, the color optical density was evaluated before and after the test, then a color optical density before the test (A0) and a color optical density after the test (A120) were measured, and a ratio (A120/A0) was defined as a residual rate. The residual rate was used as an indicator for a color developing durability. The higher the residual rate, the higher the color developing durability. The results of Examples 26, 50, and Comparative Examples 1 to 8 are summarized in Table 1, and the results of Examples 27 to 49 are summarized in Tables 2 and 3.
(§2) First, the photochromic compound obtained in Example 1, additives, and a polymerizable compound were mixed to obtain a curable composition.
(§3) As the polymerizable compound, a combination of the following polymerizable monomers was used. • 1,3-bis(isocyanatomethyl)cyclohexane: 36.7 parts by mass Pentaerythritol tetrakis(3-mercaptopropionate): 39.4 parts by mass • Polyoxyethylene polyoxypropylene lauryl ether (Wonder Surf 140 manufactured by Aoki Oil Industrial Co., Ltd.): 17.4 parts by mass • 1-decanethiol: 2.8 parts by mass • RX-1 adjusted according to the method described in Patent Document 13: 3.8 parts by mass
(§4) Note that the photochromic compound was added to the curable composition so that the amount of the photochromic compound was 0.106 mmol based on 100 g of the total amount of the polymerizable monomer. The following additives were used: Dimethyltin dichloride • : 0.05 part by mass • Irganox 245: 0.1 part by mass • 2-ethylhexyl 4-methoxycinnamate: 0.6 part by mass
(§5) The prepared curable composition was thoroughly defoamed, then injected into a glass mold having a 1 mm gap, and polymerized by cast polymerization. The polymerization was carried out in an air furnace while gradually raising the temperature from 27°C to 120°C over 18 hours. After the polymerization, the cured product was removed from the glass mold to obtain a photochromic cured product having a thickness of 1 mm. The obtained photochromic cured product was evaluated in the same manner as in Example 26.
(§6) (Examples 85 to 99, and Comparative Example 14 to 18) Photochromic cured products were prepared using photochromic compounds presented in Tables 6 and 7 in the same manner as in Example 84. The results of Examples 84 and 85 and Comparative Examples 14 to 18 are summarized in Table 6, and the results of Examples 86 to 99 are summarized in Table 7.

[3] = Accelerated deterioration (xenon weather meter X25, 120 hours) of photochromic cured product prepared by kneading method; details: 1 mm cured product, 0.106 mmol per 100 g monomer, A120/A0×100 after 120 hours xenon weather meter
Experimental: as §1, §2, §3, §4, §5, §6

Question: Which results are given for CCN(c1ccc(OC)cc1)c1ccc(C2(c3ccc(OC)cc3)C=Cc3c4c(c5cc(-c6ccc(N7CCOCC7)cc6)c(OC)cc5c3O2)-c2ccccc2C4(C)C)cc1 (stereo not shown) [Example 25]?
Answer: Residual rate [1]: 63%; A23 [2]: 0.88 -; A23 ([2]; listed as Formula (88)): 0.96 -; Maximum absorption wavelength [2]: 505 nm; Maximum absorption wavelength ([2]; listed as Formula (88)): 613 nm; Residual rate [3]: 68%

Question: For CCC1(CC)CCC2(CC1)c1cc(OC(F)(F)F)ccc1-c1c2c2c(c3cc(OC)ccc13)OC(c1ccc(N(C)c3ccccc3)cc1)(c1ccc(OC)c(C)c1)C=C2 (stereo not shown) [Example 16], which Residual rate [1] is on record?
Answer: The Residual rate was 57%.

Question: And the A23 [2]?
Answer: The A23 was 0.47 -.

Question: And the A23 ([2]; listed as Formula (77))?
Answer: Its A23 is 0.86 -.

Question: What about the Maximum absorption wavelength [2] of the same molecule?
Answer: The Maximum absorption wavelength was 475 nm.

Question: And the Maximum absorption wavelength ([2]; listed as Formula (77))?
Answer: Its Maximum absorption wavelength is 593 nm.

Question: And the Residual rate [3]?
Answer: The Residual rate was 64%.

Question: Which Residual rate [1] does the source give for COc1ccc(C2(c3ccc(N(C)c4ccccc4)cc3)C=Cc3c4c(c5cc(-c6ccc(N7CCOCC7)cc6)c(OC)cc5c3O2)-c2ccccc2C4(C)C)cc1 (stereo not shown) [Example 1] here?
Answer: The Residual rate was 65%.

Question: What about the A23 [2] of the same molecule?
Answer: Its A23 is 0.96 -.

Question: And the A23 ([2]; listed as Formula (37))?
Answer: The A23 was 1.06 -.

Question: And the Maximum absorption wavelength [2]?
Answer: Its Maximum absorption wavelength is 503 nm.

Question: And the Maximum absorption wavelength ([2]; listed as Formula (37))?
Answer: Its Maximum absorption wavelength is 610 nm.

Question: And the Residual rate [3]?
Answer: The Residual rate was 72%.

Question: What does the source list for CCCC1(CCC)c2ccccc2-c2c1c1c(c3cc(OC)c(-c4ccc(N(C)c5ccccc5)cc4)cc23)OC(c2ccc(C)cc2)(c2ccc(N(C)c3ccccc3)cc2)C=C1 (stereo not shown) [Example 24]?
Answer: Residual rate [1]: 62%; A23 [2]: 1.32 -; A23 ([2]; listed as Formula (86)): 1.31 -; Maximum absorption wavelength [2]: 505 nm; Maximum absorption wavelength ([2]; listed as Formula (86)): 607 nm; Residual rate [3]: 65%

Question: For COCCCCC1(CCCCOC)c2ccccc2-c2c1c1c(c3cc(-c4ccc(OC)cc4OC)c(OC)cc23)OC(c2ccc(N(C)c3ccccc3)cc2)(c2ccc3c(c2)CCO3)C=C1 (stereo not shown) [Example 62], which Residual rate [1] is on record?
Answer: The Residual rate was 61%.

Question: What about the A23 [2] of the same molecule?
Answer: The A23 was 1.02 -.

Question: What about the A23 ([2]; listed as Formula (124)) of the same molecule?
Answer: Its A23 is 1.11 -.

Question: What about the Maximum absorption wavelength [2] of the same molecule?
Answer: The Maximum absorption wavelength was 479 nm.

Question: And the Maximum absorption wavelength ([2]; listed as Formula (124))?
Answer: The Maximum absorption wavelength was 594 nm.

Question: What about the Residual rate [3] of the same molecule?
Answer: Its Residual rate is 67%.

Question: For COCCN(c1ccccc1)c1ccc(C2(c3ccc4c(c3)OCCO4)C=Cc3c4c(c5cc6c(cc5c3O2)SC(C)(C)O6)-c2ccccc2C42CCC3(CCCCC3)CC2)cc1 (stereo not shown) [Example 14], which Residual rate [1] is on record?
Answer: The Residual rate was 63%.

Question: What about the A23 [2] of the same molecule?
Answer: The A23 was 0.59 -.

Question: What about the A23 ([2]; listed as Formula (71)) of the same molecule?
Answer: Its A23 is 0.65 -.

Question: What about the Maximum absorption wavelength [2] of the same molecule?
Answer: The Maximum absorption wavelength was 496 nm.

Question: And the Maximum absorption wavelength ([2]; listed as Formula (71))?
Answer: The Maximum absorption wavelength was 590 nm.

Question: What about the Residual rate [3] of the same molecule?
Answer: The Residual rate was 71%.

Question: And the Residual rate ([3]; listed as Formula (71))?
Answer: The Residual rate was 70%.

Question: For COCCCCC1(CCCCOC)c2cc(Sc3c(C)cccc3C)ccc2-c2c1c1c(c3cc(OC)ccc23)OC(c2ccc(OC)cc2)(c2ccc(N(C)c3ccc(OC)cc3)cc2)C=C1 (stereo not shown) [Example 11], which Residual rate [1] is on record?
Answer: Its Residual rate is 60%.

Question: With CCCCOCCC1(CCOCCCC)c2ccccc2-c2c1c1c(c3cc(OC)c(NC(=O)c4ccccc4)cc23)OC(c2ccc(N(C)c3ccccc3)cc2)(c2ccc(OC)c(F)c2)C=C1 (stereo not shown) [Example 53] as the molecule, how does the Residual rate [1] read?
Answer: The Residual rate was 58%.

Question: And the Residual rate ([1]; listed as Formula (95))?
Answer: Its Residual rate is 60%.

Question: For COCCC1(CCOC)c2ccccc2-c2c1c1c(c3cc(OC)c(-c4ccc(N(c5ccccc5)c5ccccc5)cc4)cc23)OC(c2ccc(Oc3ccccc3)cc2)(c2ccc(N(C)c3ccccc3)cc2)C=C1 (stereo not shown) [Example 23], which Residual rate [1] is on record?
Answer: Its Residual rate is 60%.

Question: Which results are given for CCCC1(CCC)c2cc(OC)ccc2-c2c1c1c(c3cc(OC)ccc23)OC(c2ccc(OC)cc2)(c2ccc(N(C)c3ccccc3)cc2)C=C1 (stereo not shown) [Example 3]?
Answer: Residual rate [1]: 55%; A23 [2]: 0.59 -; A23 ([2]; listed as Formula (46)): 1.16 -; Maximum absorption wavelength [2]: 472 nm; Maximum absorption wavelength ([2]; listed as Formula (46)): 619 nm; Residual rate [3]: 61%

Question: For COc1ccc(N(C)c2ccc(C3(c4ccc(CCO[Si](C)(C)CC[Si](O[Si](C)(C)C)(O[Si](C)(C)C)O[Si](C)(C)C)cc4)C=Cc4c5c(c6cc(N(C)c7ccccc7)c(OC)cc6c4O3)-c3ccc(C(F)(F)F)cc3C53CCC(C)(C)CC3)cc2)cc1 (stereo not shown) [Example 60], which Residual rate [1] is on record?
Answer: Its Residual rate is 62%.

Question: And the Residual rate ([1]; listed as Formula (121))?
Answer: Its Residual rate is 64%.
